Where a name gives a salt, the structure may show the parent alone.
Biological target: T1, MerTK (Homo sapiens, UniProt Q12866)
T1 construct: endogenous in cells; host or cells: Jurkat cells
T1 sequence (Q12866 21-999): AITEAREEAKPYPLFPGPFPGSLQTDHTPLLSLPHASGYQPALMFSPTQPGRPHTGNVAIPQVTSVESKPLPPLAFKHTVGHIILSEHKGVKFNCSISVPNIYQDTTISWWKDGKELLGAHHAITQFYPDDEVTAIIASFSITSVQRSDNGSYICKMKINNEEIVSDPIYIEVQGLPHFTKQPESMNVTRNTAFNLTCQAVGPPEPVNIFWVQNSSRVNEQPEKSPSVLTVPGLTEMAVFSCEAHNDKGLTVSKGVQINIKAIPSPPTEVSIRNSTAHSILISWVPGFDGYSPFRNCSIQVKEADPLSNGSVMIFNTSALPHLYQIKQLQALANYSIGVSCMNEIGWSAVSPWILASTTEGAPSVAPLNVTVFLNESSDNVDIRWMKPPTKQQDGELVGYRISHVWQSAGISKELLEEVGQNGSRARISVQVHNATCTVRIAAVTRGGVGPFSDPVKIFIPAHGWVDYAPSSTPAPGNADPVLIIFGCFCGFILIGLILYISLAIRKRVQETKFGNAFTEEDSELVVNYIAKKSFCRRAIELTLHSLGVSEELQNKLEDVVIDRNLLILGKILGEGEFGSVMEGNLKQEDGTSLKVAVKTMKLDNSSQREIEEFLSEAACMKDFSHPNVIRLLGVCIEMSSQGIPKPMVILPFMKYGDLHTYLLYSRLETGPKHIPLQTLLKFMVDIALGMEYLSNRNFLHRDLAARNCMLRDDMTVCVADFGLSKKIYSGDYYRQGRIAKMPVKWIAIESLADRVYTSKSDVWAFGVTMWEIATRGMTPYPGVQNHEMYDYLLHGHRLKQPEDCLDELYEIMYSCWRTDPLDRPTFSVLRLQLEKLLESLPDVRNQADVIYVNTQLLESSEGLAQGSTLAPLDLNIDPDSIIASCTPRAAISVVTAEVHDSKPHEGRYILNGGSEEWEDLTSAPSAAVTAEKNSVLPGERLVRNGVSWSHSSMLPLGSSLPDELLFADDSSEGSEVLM
Assay: MerTk degradation in Jurkat cells (Western blot)
Assay type: cell-based
Conditions: 0.001-1 μM, 4 hour-incubation at 37° C.; for Dmax: Jurkat, 4 h, read-out: Jurkat Max % MerTK Degradation
Method in brief: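 Jurkat cells treated 4 h at 37 °C with compound at 0.001-1 μM final. RIPA lysates quantified by BCA, then MerTK probed by Western blot against actin loading control with IR-dye secondaries and Odyssey imaging.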

Cn1c(=O)n([C@H]2CCC(=O)NC2=O)c2ccc(CCCOCCOCCNCc3ccc(-c4cn([C@H]5CC[C@H](O)CC5)c5nc(NCCC(F)(F)F)ncc45)cc3)cc21 [I-48, 3-(3-methyl-2-oxo-5-[3-[2-(2-[[(4-[7-[trans-4-hydroxycyclohexyl]-2-[(3,3,3-trifluoropropyl)amino]-7H-pyrrolo[2,3-d]pyrimidin-5-y1]phenyl)methyl]amino]ethoxy)ethoxy]propyl]-2,3-dihydro-1H-1,3-benzodiazol-1-y1)piperidine-2,6-dione]
Dmax: > 50%

CCCCNc1ncc2c(-c3ccc(CN4CCN(CCCOCCCOCCCc5ccc6c(c5)n(C)c(=O)n6[C@H]5CCC(=O)NC5=O)CC4)cc3)cn([C@H]3CC[C@H](O)CC3)c2n1 [I-62, 3-[5-[3-(3-[3-[4-([4-[2-(butylamino)-7-[trans-4-hydroxycyclohexy1]-7H-pyrrolo[2,3-d]pyrimidin-5-yl]phenyl]methyl)piperazin-1-y1]propoxy]propoxy)propy1]-3-methyl-2-oxo-2,3-dihydro-1H-1,3-benzodiazol-1-y1]piperidine-2,6-dione dihydrochloride]
Dmax: > 50%

O=C1CC[C@H](n2c3ccc(NCCOCCOCCNCc4ccc(-c5cn([C@H]6CC[C@H](O)CC6)c6nc(NCCC(F)(F)F)ncc56)cc4)cc3c3cccnc32)C(=O)N1 [I-99, 3-[6-[11-(4-[7-[trans-4-hydroxycyclohexyl]-2-[(3,3,3-trifluoropropyl)amino]-7H-pyrrolo[2,3-d]pyrimidin-5-yl]phenyl)-4,7-dioxa-1,10-diazaundecan-1-y1]-9H-pyrido[2,3-b]indol-9-yl]piperidine-2,6-dione; trihydrochloride]
Dmax: > 50%

CCCCNc1ncc2c(-c3ccc([C@@H](C)N4CCN(CCCOCCCc5ccc6c(c5)n(C)c(=O)n6C5CCC(=O)NC5=O)CC4)cc3)cn([C@H]3CC[C@H](O)CC3)c2n1 (stereo partly drawn) [I-103, 3-[5-[3-(3-[4-[(1R)-1-[4-[2-(butylamino)-7-[trans-4-hydroxycyclohexyl]-7H-pyrrolo[2,3-d]pyrimidin-5-yl]phenyl]ethyl]piperazin-1-yl]propoxy)propyl]-3-methyl-2-oxo-2,3-dihydro-1H-1,3-benzodiazol-1-yl]piperidine-2,6-dione]
Dmax: > 50%

CCCCNc1ncc2c(C3CCN(CCOCCOCCOCCOCCCc4ccc5c(c4)n(C)c(=O)n5[C@H]4CCC(=O)NC4=O)CC3)cn([C@H]3CC[C@H](O)CC3)c2n1 [I-97, 3-[5-(1-[4-[2-(butylamino)-7-[trans-4-hydroxycyclohexyl]-7H-pyrrolo[2,3-d]pyrimidin-5-y1]piperidin-1-y1]-3,6,9,12-tetraoxapentadecan-15-y1)-3-methyl-2-oxo-2,3-dihydro-1H-1,3-benzodiazol-1-y1]piperidine-2,6-dione; bis(formic acid)]
Dmax: > 50%

CCCCNc1ncc2c(-c3ccc(CNCCCCOCCCCc4ccc5c(c4)n(C)c(=O)n5[C@H]4CCC(=O)NC4=O)cc3)cn([C@H]3CC[C@H](O)CC3)c2n1 [I-53, 3-[5-(4-[4-[([4-[2-(butylamino)-7-[trans-4-hydroxycyclohexyl]-7H-pyrrolo[2,3-d]pyrimidin-5-yl]phenyl]methyl)amino]butoxy]butyl)-3-methyl-2-oxo-2,3-dihydro-1H-1,3-benzodiazol-1-yl]piperidine-2,6-dione hydrochloride]
Dmax: > 50%

CCCCNc1ncc(-c2ccc(CN3CCN(C(=O)COCCOCCOCCOCCNc4cccc5c4C(=O)N(C4CCC(=O)NC4=O)C5=O)CC3)cn2)c(N[C@H]2CC[C@H](O)CC2)n1 (stereo partly drawn) [I-22, 4-[15-[4-([6-[2-(Butylamino)-4-[[trans-4-hydroxycyclohexyl]amino]pyrimidin-5-yl]pyridin-3-yl]methyl)piperazin-1-yl]-15-oxo-4,7,10,13-tetraoxa-1-azapentadecan-1-yl]-2-(2,6-dioxopiperidin-3-yl)-2,3-dihydro-1H-isoindole-1,3-dione]
Dmax: > 50%

CN1CCN(Cc2ccc(-c3ccc(CO[C@H]4CCC[C@@H]4NC(=O)c4cc(-c5cnn(CCOCCOCCCc6ccc7c(c6)n(C)c(=O)n7C6CCC(=O)NC6=O)c5)cnc4N)cc3)cc2)CC1 (stereo partly drawn) [I-182, 2-Amino-5-(1-[2-(2-[3-[1-(2,6-dioxopiperidin-3-yl)-3-methyl-2-oxo-1,3-benzodiazol-5-yl]propoxy]ethoxy)ethyl]pyrazol-4-yl]-N-[(1S,2S)-2-([4-[(4-methylpiperazin-1-yl)methyl]-[1,1-biphenyl]-4-yl]methoxy)cyclopentyl]pyridine-3-carboxamide]
Dmax: 20 to 50%

CN1C(=O)CC[C@H](n2c(=O)n(C)c3cc(CCCOCCOCCN4CCN(Cc5ccc(-c6cn([C@H]7CC[C@H](O)CC7)c7nc(NCCC(F)(F)F)ncc67)cc5)CC4)ccc32)C1=O [I-105, 1-methyl-3-(3-methyl-2-oxo-5-[3-[2-(2-[4-[(4-[7-[trans-4-hydroxycyclohexyl]-2-[(3,3,3-trifluoropropyl)amino]-7H-pyrrolo[2,3-d]pyrimidin-5-yl]phenyl)methyl]piperazin-1-yl]ethoxy)ethoxy]propyl]-2,3-dihydro-1H-1,3-benzodiazol-1-yl)piperidine-2,6-dione]
Dmax: 20 to 50%

C[C@H](CC(F)(F)F)Nc1ncc2c(-c3ccc(CN4CCN(CCCO[C@H]5CCN(Cc6ccc7c(c6)n(C)c(=O)n7C6CCC(=O)NC6=O)C5)CC4)cc3)cn([C@H]3CC[C@H](O)CC3)c2n1 (some centres unmarked) [I-198]
Jurkat Max % MerTK Degradation: A (maximum MerTK degradation greater than 50%)

C[C@@H](Nc1ncc2c(-c3ccc(CN4CCN(CCCOCCCc5ccc6c(c5)n(C)c(=O)n6C5CCC(=O)NC5=O)CC4)cc3)cn([C@H]3CC[C@H](O)CC3)c2n1)C(F)F (some centres unmarked) [I-215]
Dmax: > 50%

CCC[C@H](C)Nc1ncc2c(-c3ccc(CN4CCN(C5CC(OCCc6ccc7c(c6)n(C)c(=O)n7C6CCC(=O)NC6=O)C5)CC4)cc3)cn([C@H]3CC[C@H](O)CC3)c2n1 (stereo partly drawn) [I-175, 3-[3-methyl-2-oxo-5-[2-(3-[4-[(4-[2-[(2S)-pentan-2-ylamino]-7-[trans-4-hydroxycyclohexyl]pyrrolo[2,3-d]pyrimidin-5-yl]phenyl)methyl]piperazin-1-yl]cyclobutoxy)ethyl]-1,3-benzodiazol-1-yl]piperidine-2,6-dione]
Dmax: > 50%

Cn1c(=O)n([C@H]2CCC(=O)NC2=O)c2ccc(CCCOCCCOCCN3CCN(Cc4ccc(-c5cn([C@H]6CC[C@H](O)CC6)c6nc(NCCC7CC7)ncc56)cc4)CC3)cc21 [I-70, 3-(5-[3-[3-(2-[4-[(4-[2-[(2-cyclopropylethyl)amino]-7-[trans-4-hydroxycyclohexyl]-7H-pyrrolo[2,3-d]pyrimidin-5-yl]phenyl)methyl]piperazin-1-yl]ethoxy)propoxy]propy1]-3-methyl-2-oxo-2,3-dihydro-1H-1,3-benzodiazol-1-y1)piperidine-2,6-dione]
Dmax: > 50%

CCC1CN(c2ccc(-c3ccnc(Nc4cc(OC)c(OC)c(OCCOCCOCCOCCOCCNc5cccc6c5C(=O)N(C5CCC(=O)NC5=O)C6=O)c4)n3)cn2)CCN1 (centres unmarked) [I-234]
Dmax: < 20%

COC[C@@H](C)Nc1ncc2c(-c3ccc(CN4CCN(CCOCCOCCOCCOCCNc5cccc6c5n(C)c(=O)n6C5CCC(=O)NC5=O)CC4)cc3)cn([C@H]3CC[C@H](O)CC3)c2n1 (stereo partly drawn) [I-5, Trans-3-[4-[15-(4-[[4-(2-[[(2R)-1-methoxypropan-2-yl]amino]-7-[4-hydroxycyclohexyl]-7H-pyrrolo[2,3-d]pyrimidin-5-yl)phenyl]methyl]piperazin-1-yl)-4,7,10,13-tetraoxa-1-azapentadecan-1-yl]-3-methyl-2-oxo-2,3-dihydro-1H-1,3-benzodiazol-1-yl]piperidine-2,6-dione bis(formic acid)]
Dmax: < 20%

CCC[C@H](C)Nc1ncc2c(n1)n([C@H]1CC[C@H](O)CC1)cc2[C@H]1CC[C@@H](CN2CCN(C3CC(OCCc4ccc5c(c4)n(C)c(=O)n5C4CCC(=O)NC4=O)C3)CC2)CC1 (stereo partly drawn) [I-206, 3-(3-methyl-2-oxo-5-[2-[3-(4-[cis-4-[2-[(2S)-pentan-2-ylamino]-7-[trans-4-hydroxycyclohexyl]pyrrolo[2,3-d]pyrimidin-5-yl]cyclohexyl]methyl]piperazin-1-yl)cyclobutoxylethyl]-1,3-benzodiazol-1-y1)piperidine-2,6-dione]
Dmax: > 50%

Cn1c(=O)n([C@H]2CCC(=O)NC2=O)c2ccc(CCCOCCCN3CCN(Cc4ccc(-c5cn([C@H]6CC[C@H](O)CC6)c6nc(NCC(F)F)ncc56)cc4)CC3)cc21 [I-100, 3-[5-[3-(3-[4-[(4-[2-[(2,2-difluoroethyl)amino]-7-[trans-4-hydroxycyclohexyl]-7H-pyrrolo[2,3-d]pyrimidin-5-yl]phenyl)methyl]piperazin-1-yl]propoxy)propyl]-3-methyl-2-oxo-2,3-dihydro-1H-1,3-benzodiazol-1-yl]piperidine-2,6-dione; formic acid]
Dmax: > 50%

From patent US20260042762A1 (Kymera Therapeutics, Inc., priority 2018, published 2026)
